Measurements reported in patent US8772504B2, “Substituted benzoxazole, benzimidazole, oxazolopyridine and imidazopyridine derivatives as gamma secretase modulators” (Janssen Pharmaceuticals, Inc., priority 2009, dated 2014).
pIC50: −log10 of the molar value.

Tests used:
Aβtotal [1] = experiment: Screening for γ-secretase-modulating activity, Method 1: Aβtotal sandwich ELISA on SKNBE2 cell media; assay type: cell-based; conditions: Homo sapiens, SKNBE2 cells carrying APP 695 wild type
Outline: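 SKNBE2 cells expressing wild-type APP 695 were treated with compound for 18 hours. Aβtotal in the medium was measured by sandwich ELISA (6E10 capture, biotinylated 4G8 detection, fluorogenic peroxidase read-out). IC50 came from a 4-parameter fit of % inhibition with top/bottom fixed at 100/0 and Hill slope 1, or as averaged IC50 from % of untreated control.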

Aβ42 [2] = experiment: Screening for γ-secretase-modulating activity, Method 1: Aβ42 sandwich ELISA on SKNBE2 cell media; assay type: cell-based; conditions: Homo sapiens, SKNBE2 cells carrying APP 695 wild type
Outline: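 SKNBE2 cells expressing wild-type APP695 were treated with compound for 18 h in Ultraculture/1% glutamine. Secreted Aβ42 was quantified by sandwich ELISA (C-terminal capture, biotinylated 3D6, TMB, 450 nm), with WST-1 used as a toxicity check. IC50 was derived from 4-parameter fits of % inhibition or % of untreated control.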

Aβ42 [3] = experiment: In vivo efficacy Method 1: brain soluble Aβ42 by ELISA; parameters: species or system mouse; conditions: Table 4a, single oral dose, overnight fasted animals, sacrificed after 4 h, soluble fraction of brain homogenates
Source text: (§1) To determine whether acute administration of an Aβ42 lowering agent would reduce Aβ42 levels in vivo, non-transgenic rodents, e.g. mice or rats were used. Alternatively, two to three month old Tg2576 mice expressing APP695 containing the “Swedish” variant can be used or a transgenic mouse model developed by Dr. Fred Van Leuven (K.U. Leuven, Belgium) and co-workers, with neuron-specific expression of a clinical mutant of the human amyloid precursor protein [V717I] […] Young transgenic mice have high levels of Aβ in the brain but no detectable Aβ deposition. At approximately 6-8 months of age, the transgenic mice start to display spontaneous, progressive accumulation of β-amyloid (Aβ) in the brain, eventually resulting in amyloid plaques within the subiculum, hippocampus and cortex. Animals treated with the Aβ42 lowering agent were examined and compared to those untreated or treated with vehicle and brain levels of soluble Aβ42 and total Aβ would be quantitated by standard techniques, for example, using ELISA.
(§2) A typical protocol for measuring Aβ42 lowering in vivo is shown but it is only one of many variations that could be used to optimize the levels of detectable Aβ. For example, Aβ42 lowering compounds were formulated in 20% of Captisol® (a sulfobutyl ether of β-cyclodextrin) in water or 20% hydroxypropyl β cyclodextrin. The Aβ42 lowering agents were administered as a single oral dose or by any acceptable route of administration to overnight fasted animals. After 4 h, the animals were sacrificed and Aβ42 levels were analysed.
(§3) Blood was collected by decapitation and exsanguinations in EDTA-treated collection tubes. Blood was centrifuged at 1900 g for 10 minutes (min) at 4° C. and the plasma recovered and flash frozen for later analysis. The brain was removed from the cranium and hindbrain. The cerebellum was removed and the left and right hemisphere were separated. The left hemisphere was stored at −18° C. for quantitative analysis of test compound levels. The right hemisphere was rinsed with phosphate-buffered saline (PBS) buffer and immediately frozen on dry ice and stored at −80° C. until homogenization for biochemical assays.
(§4) All samples were sonicated for 30 seconds on ice at 20% power output (pulse mode). Homogenates were centrifuged at 221.300×g for 50 min. The resulting high speed supernatants were then transferred to fresh tubes and were optionally further purified before the next step. A portion of the supernatant was neutralized with 10% 0.5 M Tris-HCl and this was used to quantify Aβtotal.
(§5) The obtained supernatants were purified with Water Oasis HLB reverse phase columns (Waters Corp., Milford, Mass.) to remove non-specific immunoreactive material from the brain lysates prior subsequent Aβ detection. Using a vacuum manifold, all solutions were passed through the columns at a rate of approximately 1 ml per min, so the vacuum pressure was adjusted accordingly throughout the procedure. Columns were preconditioned with 1 ml of 100% MeOH, before equilibration with 1 ml of H2O, Non-neutralized brain lysates were loaded onto the columns. The loaded samples were then washed twice with the first wash performed with 1 ml of 5% MeOH, and the second wash with 1 ml of 30% MeOH. Finally, the Aβ was eluted from the columns and into 100×30 mm glass tubes, with a solution of 90% MeOH with 2% NH4OH. The eluate was then transferred into 1.5 ml tubes and concentrated in a speed-vac concentrator on high heat for about 1.5-2 h at 70° C. The concentrated Aβ was then resuspended in UltraCULTURE General Purpose Serum-Free Medium (Cambrex Corp., Walkersville, Md.) plus Protease Inhibitors added.
To quantify the amount of Aβ42 in the soluble fraction of the brain homogenates, commercially available Enzyme-Linked-Immunosorbent-Assay (ELISA) kits were used (e.g. Innotest® β-Amyloid(1-42), Innogenetics N.V., Ghent, Belgium). The Aβ42 ELISA was performed using the plate provided with the kit only.

Aβtotal [4] = experiment: In vivo efficacy Method 1: brain soluble Aβtotal by ELISA; parameters: species or system mouse; conditions: Table 4a, single oral dose, overnight fasted animals, sacrificed after 4 h, soluble fraction of brain homogenates
Source text: as §1, §2, §3, §4
as §5, with “added. […]” for “added.”

Aβ42 [5] = experiment: Screening for γ-secretase-modulating activity, Method 2: Aβ42 Alphalisa on SKNBE2 cell supernatant; assay type: cell-based; conditions: Method 2, Table 3c, SKNBE2 cells carrying APP 695 wild type, overnight incubation
Outline: (§6)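 SKNBE2 cells expressing wild-type APP695, plated at 10^4 cells/well with compound at several concentrations and incubated overnight at 37° C. Aβ42 (C-terminal capture, N-terminal biotinylated detection) and Aβtotal (N-terminal/4G8 pair) measured in supernatant by AlphaLISA. IC50 from 4-parameter fit of percent of compound-free control.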

Aβtotal [6] = experiment: Screening for γ-secretase-modulating activity, Method 2: Aβtotal Alphalisa on SKNBE2 cell supernatant; assay type: cell-based; conditions: Method 2, Table 3c, SKNBE2 cells carrying APP 695 wild type, overnight incubation
Outline: as §6

Aβtotal [7] = experiment: In vivo efficacy Method 2: brain soluble Aβtotal by ELISA; parameters: species or system mouse; conditions: Table 4b, single oral dose, overnight fasted non-transgenic animals, sacrificed after 4 h, soluble fraction of brain homogenates
Source text: (§7) To determine whether acute administration of an Aβ42 lowering agent would reduce Aβ42 levels in vivo, non-transgenic rodents, e.g. mice or rats were used. Animals treated with the Aβ42 lowering agent were examined and compared to those untreated or treated with vehicle and brain levels of soluble Aβ42 and total Aβ were quantitated by standard techniques, for example, using ELISA. Treatment periods varied from hours (h) to days and were adjusted based on the results of the Aβ42 lowering once a time course of onset of effect could be established.
as §2, §3
(§8) Mouse brains from non-transgenic animals were resuspended in 8 volumes of 0.4% DEA (diethylamine)/50 mM NaCl containing protease inhibitors (Roche-11873580001 or 04693159001) per gram of tissue, e.g. for 0.158 g brain, add 1.264 ml of 0.4% DEA. All samples were homogenized in the FastPrep-24 system (MP Biomedicals) using lysing matrix D (MPBio #6913-100) at 6 m/s for 20 seconds. Homogenates were centrifuged at 221.300×g for 50 min. The resulting high speed supernatants were then transferred to fresh eppendorf tubes. Nine parts of supernatant were neutralized with 1 part 0.5 M Tris-HCl pH 6.8 and used to quantify Aβtotal and Aβ42.
(§9) To quantify the amount of Aβtotal and Aβ42 in the soluble fraction of the brain homogenates, Enzyme-Linked-Immunosorbent-Assays were used . Briefly, the standards (a dilution of synthetic Aβ1-40 and Aβ1-42, Bachem) were prepared in 1.5 ml Eppendorf tube in Ultraculture, with final concentrations ranging from 10000 to 0.3 pg/ml. The samples and standards were co-incubated with HRPO-labelled N-terminal antibody for Aβ42 detection and with the biotinylated mid-domain antibody 4G8 for Aβtotal detection. 50 μl of conjugate/sample or conjugate/standards mixtures were then added to the antibody-coated plate (the capture antibodies selectively recognize the C-terminal end of Aβ42, antibody JRF/cAβ42/26, for Aβ42 detection and the N-terminus of Aβ, antibody JRF/rAβ/2, for Aβtotal detection). The plate was allowed to incubate overnight at 4° C. in order to allow formation of the antibody-amyloid complex. Following this incubation and subsequent wash steps the ELISA for Aβ42 quantification was finished by addition of Quanta Blu fluorogenic peroxidase substrate according to the manufacturer's instructions (Pierce Corp., Rockford, Ill.). A reading was performed after 10 to 15 min (excitation 320/emission 420).
For Aβtotal detection, a Streptavidine-Peroxidase-Conjugate was added, followed 60 min later by an additional wash step and addition of Quanta Blu fluorogenic peroxidase substrate according to the manufacturer's instructions (Pierce Corp., Rockford, Ill.). A reading was performed after 10 to 15 min (excitation 320 nm/emission 420 nm).

Aβ42 [8] = experiment: In vivo efficacy Method 2: brain soluble Aβ42 by ELISA; parameters: species or system mouse; conditions: Table 4b, single oral dose, overnight fasted non-transgenic animals, sacrificed after 4 h, soluble fraction of brain homogenates
Source text: as §7, §2, §3, §8, §9
In this model at least 20% Aβ42 lowering compared to untreated animals would be advantageous.

[9] = Table 3a, 18 hours, XLfit, top/bottom fixed to 100 and 0, hill slope 1
[10] = Table 3b, non-linear regression of % of control, averaged IC50 values

| pIC50 (Aβ42 [5]; Homo sapiens) | pIC50 (Aβtotal [6]; Homo sapiens) | pIC50 (Aβ42 [5]) | pIC50 (Aβtotal [6]) | Structure (SMILES) | Aβtotal (% Ctrl) _Mean (Aβtotal [7]) | Aβ42 (% Ctrl) _Mean (Aβ42 [8]) | further results |
| --- | --- | --- | --- | --- | --- | --- | --- |
| 7.10 | < 5.00 |  |  | CC(=O)Nc1cccc(-c2nc3c(Nc4ccc(-n5cnc(C)c5)c(F)c4)nc(C)cc3n2C)c1 [Compound 141] |  |  | melting point: 257.2 °C |
|  |  | 8.22 | 5.43 | COc1nc(Nc2cccc3c2nc(-c2cc(F)cc(F)c2)n3C)ccc1-n1cnc(C)c1.Cl.Cl.O [Compound 165] | 85 % Ctrl | 44 % Ctrl |  |
|  |  | 8.15 | 5.28 | COc1nc(Nc2cccc3c2nc(-c2cccc(C(F)(F)F)c2)n3C)ccc1-n1cnc(C)c1 [Compound 167] | 84 % Ctrl | 46 % Ctrl |  |
| 7.89 | < 5.00 |  |  | COc1cc(-c2nc3c(Nc4ccc(-n5cnc(C)c5)c(OC)n4)cccc3n2C)ccc1F [Compound 184] | 88 % Ctrl | 31 % Ctrl |  |
| 7.44 | 5.14 |  |  | COc1nc(Nc2cccc3c2nc(-c2cc(C(F)(F)F)ccc2F)n3C)ccc1-n1cnc(C)c1 [Compound 187] | 96 % Ctrl | 75 % Ctrl |  |

More lines, now with the values behind:

| Structure (SMILES) | pIC50 (Aβ42 [5]; Homo sapiens) | pIC50 (Aβtotal [6]; Homo sapiens) | pIC50 (Aβ42 [5]) | pIC50 (Aβtotal [6]) | Aβtotal (% Ctrl) _Mean (Aβtotal [7]) | Aβ42 (% Ctrl) _Mean (Aβ42 [8]) | further results |
| --- | --- | --- | --- | --- | --- | --- | --- |
| Cc1cn(-c2ncc(Nc3cccc4c3nc(-c3ccc(F)cc3)n4C)cn2)cn1 [Compound 6] |  |  |  |  |  |  | pIC50 (Aβtotal [1]; [9]): < 6.00; pIC50 (Aβtotal [1]; [10]): < 5.52; pIC50 (Aβ42 [2]; [9]): 7.54; pIC50 (Aβ42 [2]; [10]): 7.55; Aβ42 (% Ctrl) _Mean (Aβ42 [3]): 66 % Ctrl; Aβtotal (% Ctrl) _Mean (Aβtotal [4]): 91 % Ctrl; melting point: 201.7 °C |
| COc1cc(Nc2cccc3c2nc(N2CCC(F)(F)CC2)n3C)ccc1-n1cnc(C)c1 [Compound 12] |  |  |  |  |  |  | pIC50 (Aβtotal [1]; [9]): < 5.52; pIC50 (Aβtotal [1]; [10]): < 5.52; pIC50 (Aβ42 [2]; [9]): 7.08; pIC50 (Aβ42 [2]; [10]): 7.12; melting point: 81.2 °C |
| COc1nc(Nc2cc(C(C)C)nc3c2nc(-c2ccc(F)cc2)n3C)ccc1-n1cnc(C)c1 [Compound 111] | 8.40 | 5.32 |  |  |  |  | melting point: 172.3 °C |
| Cc1cn(-c2ccc(Nc3nc(C)cc4c3nc(-c3cccc(N(C)C)c3)n4C)cc2F)cn1 [Compound 142] |  |  | 7.82 | 5.03 | 98 % Ctrl | 73 % Ctrl |  |
| COc1cc(Nc2ccc(-n3cnc(C)c3)c(OC)n2)c2nc(-c3ccc(F)cc3)n(C)c2c1 [Compound 160] |  |  | 8.30 | < 5.00 | 78 % Ctrl | 84 % Ctrl |  |
| COc1nc(Nc2cccc3c2nc(-c2ccc(F)cc2)n3C(C)C)ccc1-n1cnc(C)n1 [Compound 162] |  |  | 8.30 | 5.25 | 97 % Ctrl | 79 % Ctrl |  |
| COc1nc(Nc2cccc3c2nc(-c2cccc(NC(C)=O)c2)n3C)ccc1-n1cnc(C)c1 [Compound 174] | 7.42 | 5.02 |  |  | 104 % Ctrl | 90 % Ctrl |  |
| COc1cc(OC)cc(-c2nc3c(Nc4ccc(-n5cnc(C)c5)c(OC)n4)cccc3n2C)c1.Cl.Cl.O [Compound 186] |  |  | 7.92 | 5.08 | 88 % Ctrl | 38 % Ctrl |  |
| COc1nc(Nc2cccc3c2nc(-c2cccc(OC(F)(F)F)c2)n3C)ccc1-n1cnc(C)c1 [Compound 189] |  |  | 7.77 | 5.08 | 95 % Ctrl | 48 % Ctrl |  |
| COc1cc(Nc2ccc(-n3cnc(C)c3)c(OC)n2)c2nc(-c3ccc(F)cc3)n(C)c2n1 [Compound 202] |  |  | 8.30 | < 5.00 | 102 % Ctrl | 82 % Ctrl |  |
